Measurements published in patent publication US20170224654A1, “PHARMACEUTICAL COMPOSITIONS AND METHODS FOR COUNTERING CHEMOTHERAPY INDUCED CARDIOTOXICITY” (Stem Cell Theranostics, Inc., priority 2016, published 2017).
Entries after “also recorded” stand apart in the source; their conditions may differ.

Tests used:
[1] = target: T1, TOPOIIα (Homo sapiens, UniProt P11388); assay: kDNA decatenation assay; format: biochemical; conditions: for TOPOIIα enzymatic inhibition (in words): DHM: even at >200 μM
T1 construct: purchased Inspiralis

[2] = target: T2, TOPOIIβ (Homo sapiens, UniProt Q02880); assay: kDNA decatenation assay; format: biochemical; conditions: for TOPOIIβ enzymatic inhibition (in words): DHM: even at >200 μM
T2 construct: purchased Inspiralis

[3] = system: Human iPSC-derived cardiomyocytes; assay: Cytotoxicity of MYR analogs to cardiomyocytes; conditions: for Toxicity: 100 μM; for cytotoxicity / toxic effects to cardiomyocytes (in words): at or below 100 μM as stated
[4] = system: TOPOII enzymes (TOPOIIα and TOPOIIβ); assay: kDNA decatenation assay, TOPOIIα and TOPOIIβ jointly; format: biochemical; conditions: discussion of Table 1
Protocol: 200 ng of kinetoplast DNA (kDNA) was incubated with one enzymatic unit of TOPOIIα or TOPOIIβ enzyme (Inspiralis) and with various concentrations of MYR or DEX at 37° C. for 30 min. The reaction was then separated on 1% agarose gel for visualization of decatenated DNA (bottom band). The efficiency of catalytic inhibition was quantified by measuring the relative intensity of the band.

[5] = system: Doxorubicin treated human iPSC-derived cardiomyocytes; assay: iPSC-CM protection of MYR analogs against doxorubicin; format: cell-based
[6] = system: induced pluripotent stem cell-derived cardiomyocytes; assay: Acute toxicity on electrophysiology (MEA beat period, field potential duration); format: cell-based; conditions: for acute drug toxicity (beating): higher concentrations; for beat period or field potential duration, as compared to control samples: lower drug concentration, at least 20 minutes
Protocol: Samples were either mock-treated with 0.1% DMSO, or treated with increasing concentrations of the indicated drug for at least 20 minutes. Cardiomyocytes were treated with the hERG potassium channel blocker E4031 as a control. Following treatment, the beat period and field potential duration (FPD) were measured in each sample using the MEA.

[7] = system: MDA-MB-231 breast cancer cells; assay: Cell viability with doxorubicin (CellTiter-Glo); format: cell-based; conditions: co-treated with increasing concentrations of doxorubicin, 72 hours
[8] = system: A549 cells (lung cancer); assay: Cell viability with doxorubicin (CellTiter-Glo); format: cell-based; conditions: co-treated with increasing concentrations of doxorubicin, 72 hours
Protocol: A549 cells (lung cancer) were cultured for 1 day before performing experiments. […] XLFit was used for curve fitting.

T2 sequence (Q02880 whole entry): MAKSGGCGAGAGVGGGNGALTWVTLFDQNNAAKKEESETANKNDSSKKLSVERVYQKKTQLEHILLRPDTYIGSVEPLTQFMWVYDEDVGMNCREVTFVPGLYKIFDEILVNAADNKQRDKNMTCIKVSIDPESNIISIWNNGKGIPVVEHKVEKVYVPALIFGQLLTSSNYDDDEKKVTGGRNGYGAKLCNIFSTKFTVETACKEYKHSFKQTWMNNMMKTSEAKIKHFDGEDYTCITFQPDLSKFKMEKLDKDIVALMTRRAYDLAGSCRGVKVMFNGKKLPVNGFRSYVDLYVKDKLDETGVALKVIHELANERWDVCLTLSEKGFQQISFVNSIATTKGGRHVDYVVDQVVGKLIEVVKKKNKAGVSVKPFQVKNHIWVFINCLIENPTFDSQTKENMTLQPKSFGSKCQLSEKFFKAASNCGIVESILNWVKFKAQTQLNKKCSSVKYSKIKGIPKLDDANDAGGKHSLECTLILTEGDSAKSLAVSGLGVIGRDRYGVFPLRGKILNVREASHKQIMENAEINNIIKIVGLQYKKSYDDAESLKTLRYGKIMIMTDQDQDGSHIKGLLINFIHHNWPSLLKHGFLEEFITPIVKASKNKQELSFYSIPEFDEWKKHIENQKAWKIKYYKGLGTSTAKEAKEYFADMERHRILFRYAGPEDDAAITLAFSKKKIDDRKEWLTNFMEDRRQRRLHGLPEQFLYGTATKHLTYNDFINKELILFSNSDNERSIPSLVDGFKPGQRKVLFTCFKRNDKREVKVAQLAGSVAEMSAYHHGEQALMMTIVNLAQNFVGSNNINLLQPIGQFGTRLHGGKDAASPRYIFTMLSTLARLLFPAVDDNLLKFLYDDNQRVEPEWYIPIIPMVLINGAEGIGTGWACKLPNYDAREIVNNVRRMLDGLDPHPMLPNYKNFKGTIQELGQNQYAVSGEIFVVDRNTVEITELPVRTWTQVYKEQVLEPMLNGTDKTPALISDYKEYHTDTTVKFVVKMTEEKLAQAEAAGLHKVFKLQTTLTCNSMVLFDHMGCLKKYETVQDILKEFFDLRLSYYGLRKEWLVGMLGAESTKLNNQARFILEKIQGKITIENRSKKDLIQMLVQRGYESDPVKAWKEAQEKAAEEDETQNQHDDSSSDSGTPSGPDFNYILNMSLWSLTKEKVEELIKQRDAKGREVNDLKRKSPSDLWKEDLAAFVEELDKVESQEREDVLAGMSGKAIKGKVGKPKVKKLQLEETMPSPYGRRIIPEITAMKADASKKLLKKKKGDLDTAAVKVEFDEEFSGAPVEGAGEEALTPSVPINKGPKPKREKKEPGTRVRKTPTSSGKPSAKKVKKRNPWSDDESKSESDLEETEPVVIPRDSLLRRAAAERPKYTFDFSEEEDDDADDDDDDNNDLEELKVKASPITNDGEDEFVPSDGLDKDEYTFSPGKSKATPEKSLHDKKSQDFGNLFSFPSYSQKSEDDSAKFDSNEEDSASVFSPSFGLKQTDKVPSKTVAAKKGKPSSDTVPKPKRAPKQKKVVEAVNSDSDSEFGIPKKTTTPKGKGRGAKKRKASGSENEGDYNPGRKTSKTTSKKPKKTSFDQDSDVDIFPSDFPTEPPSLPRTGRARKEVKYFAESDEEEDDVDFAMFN
T1 sequence (P11388 whole entry): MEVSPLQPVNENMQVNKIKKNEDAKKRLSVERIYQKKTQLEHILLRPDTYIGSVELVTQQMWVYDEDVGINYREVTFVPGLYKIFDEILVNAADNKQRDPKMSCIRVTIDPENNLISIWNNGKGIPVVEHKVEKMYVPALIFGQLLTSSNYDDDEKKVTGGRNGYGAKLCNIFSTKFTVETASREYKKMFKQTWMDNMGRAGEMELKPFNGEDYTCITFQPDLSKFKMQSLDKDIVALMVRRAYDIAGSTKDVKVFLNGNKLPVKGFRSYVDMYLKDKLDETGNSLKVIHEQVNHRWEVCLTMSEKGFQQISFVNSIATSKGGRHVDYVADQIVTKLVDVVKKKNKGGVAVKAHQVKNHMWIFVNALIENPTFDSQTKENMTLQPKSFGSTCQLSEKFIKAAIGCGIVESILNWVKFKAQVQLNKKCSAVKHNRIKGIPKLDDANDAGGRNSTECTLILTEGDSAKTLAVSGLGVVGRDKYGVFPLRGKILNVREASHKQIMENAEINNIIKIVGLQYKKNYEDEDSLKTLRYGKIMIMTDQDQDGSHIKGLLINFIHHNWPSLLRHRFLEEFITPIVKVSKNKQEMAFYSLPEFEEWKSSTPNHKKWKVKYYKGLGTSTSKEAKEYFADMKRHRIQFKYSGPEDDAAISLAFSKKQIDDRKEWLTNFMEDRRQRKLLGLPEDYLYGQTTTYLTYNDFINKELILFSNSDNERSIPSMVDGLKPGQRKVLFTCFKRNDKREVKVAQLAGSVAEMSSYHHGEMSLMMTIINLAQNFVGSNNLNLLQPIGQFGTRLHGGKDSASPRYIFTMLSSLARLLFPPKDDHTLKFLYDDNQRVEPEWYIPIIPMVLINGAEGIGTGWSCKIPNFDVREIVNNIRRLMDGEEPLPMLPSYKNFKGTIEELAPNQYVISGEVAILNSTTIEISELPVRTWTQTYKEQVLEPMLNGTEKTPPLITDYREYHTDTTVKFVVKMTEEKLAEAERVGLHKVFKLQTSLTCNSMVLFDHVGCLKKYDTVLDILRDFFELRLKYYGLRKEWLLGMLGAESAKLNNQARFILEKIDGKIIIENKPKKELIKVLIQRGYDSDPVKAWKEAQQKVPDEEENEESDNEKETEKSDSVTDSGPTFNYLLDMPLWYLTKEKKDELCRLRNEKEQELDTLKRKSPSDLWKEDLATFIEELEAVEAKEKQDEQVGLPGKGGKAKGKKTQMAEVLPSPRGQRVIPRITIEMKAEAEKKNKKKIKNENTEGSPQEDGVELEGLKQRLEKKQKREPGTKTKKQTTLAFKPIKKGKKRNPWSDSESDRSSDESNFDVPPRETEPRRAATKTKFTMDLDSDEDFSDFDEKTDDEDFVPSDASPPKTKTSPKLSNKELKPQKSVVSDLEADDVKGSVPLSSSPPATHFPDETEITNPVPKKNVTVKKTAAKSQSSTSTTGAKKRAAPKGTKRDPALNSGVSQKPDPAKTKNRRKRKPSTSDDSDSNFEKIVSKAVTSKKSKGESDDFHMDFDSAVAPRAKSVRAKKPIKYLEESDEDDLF

| SMILES | TOPOIIα Inhibition [1] | TOPOIIβ Inhibition [2] | TOPOII (TOPOIIα and TOPOIIβ) inhibition (in words) [4] | cardioprotection (in words) ([5]; discussion of Table 1) | other results |
| --- | --- | --- | --- | --- | --- |
| COc1ccc2c(=O)c(OC)c(-c3cc(OC)c(OC)c(OC)c3)oc2c1 [Compound 37, 3,7,3′,4′,5′-O-pentamethylrobinetin] | − | − |  |  |  |
| O=c1c(O)c(-c2cc(O)c(O)c(O)c2)oc2cc(O)ccc12 [Compound 2, 3,7,3′,4′,5′-pentahydroxyflavone] |  |  |  |  | Toxicity [3]: −; TOPOIIα enzymatic inhibition (in words) [1]: high level of inhibition; TOPOIIβ enzymatic inhibition (in words) [2]: high level of inhibition |
| O=c1ccoc2ccccc12 [chromone] |  |  | Nor did either compound confer TOPOIIβ or a inhibition | no positive effect in cardiac protection |  |
| C[C@H](CCC(=O)O)[C@H]1CC[C@H]2[C@@H]3[C@H](O)C[C@@H]4C[C@H](O)CC[C@]4(C)[C@H]3CC[C@]12C [chenodeoxycholic acid] |  |  |  |  | acute drug toxicity (beating) [6]: beating cessation; beat period or field potential duration, as compared to control samples [6]: no appreciable difference |
| CC(=O)N[C@@H](CS)C(=O)O [N-acetyl cysteine] |  |  |  |  | percentage of cell death vs doxorubicin in the absence of a protective agent [7]: no significant difference; percentage of cell death vs doxorubicin in the absence of a protective agent [8]: no significant difference; beat period or field potential duration, as compared to control samples [6]: no appreciable difference |
| COc1c(O)cc(-c2oc3cc(O)cc(O)c3c(=O)c2O)cc1O [4′-O-methylmyricetin] |  |  | without TOPOII inhibition | conferred cardioprotection |  |
| COc1cc(-c2oc3cc(O)cc(O)c3c(=O)c2O)cc(O)c1O [3′-O-methylmyricetin] |  |  | failed to inhibit TOPOII enzymes | conferred cardioprotection | cytotoxicity / toxic effects to cardiomyocytes (in words) [3]: without showing generalized cytotoxicity; EC50 ([5]; Homo sapiens, Cardiomyocyte, discussion of Table 1, read-out: EC50 / potency for cardioprotection): ~59 µM |
| O=c1cc(-c2cc(O)c(O)c(O)c2)oc2cc(O)ccc12 [7,3′,4′,5′-tetrahydroxyflavone] |  |  | did not inhibit TOPOII enzymes | displayed cardioprotection |  |
| CC(=O)N(O)CCCCCNC(=O)CCC(=O)N(O)CCCCCNC(=O)CCC(=O)N(O)CCCCCN [deferoxamine] |  |  |  |  | beat period or field potential duration, as compared to control samples [6]: no appreciable difference |
| COc1ccc2c(=O)c(OC)c(-c3cc(OC)c(OC)c(OC)c3)oc2c1 [3,7,3′,4′,5′-O-pentamethylrobinetin] |  |  | entirely failed to display cardioprotection or TOPOII inhibition | entirely failed to display cardioprotection or TOPOII inhibition |  |
| O=c1c(O)c(-c2ccc(O)c(O)c2)oc2cc(O)cc(O)c12 [Compound 4, 3,5,7,3′,4′-pentahydroxyflavone] |  |  | exhibited TOPOII inhibition | conferred cardioprotection | cytotoxicity / toxic effects to cardiomyocytes (in words) [3]: high level of general cytoxicity |
| COc1cc(-c2oc3cc(O)cc(O)c3c(=O)c2O)cc(OC)c1O [Compound 33, 3′,5′-O-dimethylmyricetin] | − | − |  |  |  |
| O=c1c(O)c(-c2ccccc2)oc2cc(O)cc(O)c12 [3,5,7-trihydroxyflavone] |  |  | neither cardioprotection nor TOPOII inhibition | neither cardioprotection nor TOPOII inhibition | cytotoxicity / toxic effects to cardiomyocytes (in words) [3]: generalized cytotoxicity |
| COc1ccc2c(=O)c(O)c(-c3cc(OC)c(OC)c(OC)c3)oc2c1 [Compound 36, 7,3′,4′,5′-O-tetramethylrobinetin] | − | − |  |  |  |
| COc1cc(-c2oc3cc(O)cc(O)c3c(=O)c2O)cc(OC)c1OC [3′,4′,5′-O-trimethylmyricetin] |  |  | entirely failed to display cardioprotection or TOPOII inhibition | entirely failed to display cardioprotection or TOPOII inhibition |  |
| O=C1c2c(O)cc(O)cc2O[C@H](c2cc(O)c(O)c(O)c2)[C@H]1O [dihydromyricetin] |  |  |  |  | TOPOIIα enzymatic inhibition (in words) [1]: did not inhibit; TOPOIIβ enzymatic inhibition (in words) [2]: did not inhibit |
| O=c1cc(-c2cc(O)c(O)c(O)c2)oc2cc(O)cc(O)c12 [Compound 3, 5,7,3′,4′,5′-pentahydroxyflavone] |  |  | TOPOII inhibition | displayed cardioprotection | cytotoxicity / toxic effects to cardiomyocytes (in words) ([3]; listed as tricetin): exhibits some toxic effects at concentrations less than 100 μM; also recorded: low level of cytotoxicity at 100 μM |
| O=c1ccoc2ccccc12 [Compound 29, chromone] |  |  |  |  | Toxicity [3]: − |
| COc1cc(-c2oc3cc(O)ccc3c(=O)c2O)cc(OC)c1OC [3′,4′,5′-O-trimethylrobinetin] |  |  | entirely failed to display cardioprotection or TOPOII inhibition | entirely failed to display cardioprotection or TOPOII inhibition |  |
| COc1cc(-c2oc3cc(O)cc(O)c3c(=O)c2O)cc(OC)c1OC [Compound 34, 3′,4′,5′-O-trimethylmyricetin] | − | − |  |  |  |
| O=C1C[C@@H](c2ccc(O)cc2)Oc2cc(O)cc(O)c21 [naringenin] |  |  |  |  | acute drug toxicity (beating) [6]: beating cessation; beat period or field potential duration, as compared to control samples [6]: no appreciable difference |
| COc1ccc2c(=O)c(O)c(-c3cc(OC)c(OC)c(OC)c3)oc2c1 [7,3′,4′,5′-O-tetramethylrobinetin] |  |  | entirely failed to display cardioprotection or TOPOII inhibition | entirely failed to display cardioprotection or TOPOII inhibition |  |
| O=c1ccoc2cc(O)ccc12 [Compound 38, 7-hydroxy-4-chromone] | − | − |  |  |  |
| O=c1cc(-c2ccc(O)cc2)oc2ccccc12 [Compound 17, 4′-hydroxyflavone] |  |  |  |  | Toxicity [3]: −; Emax ([5]; Homo sapiens, iPSC-CM, initial screen at 10 μM or 100 μM, read-out: iPSC-CM protection Max Effect (%)): < 30% |
| COc1cc(-c2oc3cc(O)cc(O)c3c(=O)c2O)cc(OC)c1O [3′,5′-O-dimethylmyricetin] |  |  | neither cardioprotection nor TOPOIIα and TOPOIIβ inhibition | neither cardioprotection nor TOPOIIα and TOPOIIβ inhibition |  |
| O=c1ccoc2cc(O)ccc12 [Compound 7-hydroxy-4-chromone, 7-hydroxy-4-chromone] |  |  | Nor did either compound confer TOPOIIβ or a inhibition | no positive effect in cardiac protection | cytotoxicity / toxic effects to cardiomyocytes (in words) [3]: high level of cytotoxicity at 100 μM |

Now from value to molecule, other results behind:

| TOPOIIα Inhibition [1] | TOPOIIβ Inhibition [2] | SMILES | TOPOII (TOPOIIα and TOPOIIβ) inhibition (in words) [4] | cardioprotection (in words) ([5]; discussion of Table 1) | other results |
| --- | --- | --- | --- | --- | --- |
| − | − | COc1c(O)cc(-c2oc3cc(O)cc(O)c3c(=O)c2O)cc1O [Compound 32, 4′-O-methylmyricetin] |  |  |  |
| − | − | O=c1cc(-c2ccc(O)c(O)c2)oc2cc(O)ccc12 [Compound 11, 7,3′,4′-trihydroxyflavone] |  |  |  |
| − | − | COc1cc(-c2oc3cc(O)cc(O)c3c(=O)c2O)cc(O)c1O [Compound 31, 3′-O-methylmyricetin] |  |  |  |
| − | − | O=c1c(O)c(-c2ccc(O)cc2)oc2cc(O)ccc12 [Compound 10, 3,7,4′-trihydroxyflavone] |  |  | cytotoxicity / toxic effects to cardiomyocytes (in words) [3]: exhibited toxic effects at concentrations below 100 μM |
| − | − | O=c1cc(-c2ccc(O)c(O)c2)oc2cc(O)cc(O)c12 [Compound 9, 5,7,3′,4′-tetrahydroxyflavone] |  |  |  |
| − | − | O=c1c(O)c(-c2ccc(O)c(O)c2)oc2ccccc12 [Compound 12, 3,3′,4′-trihydroxyflavone] |  |  |  |
| − | − | COc1cc(-c2oc3cc(O)ccc3c(=O)c2O)cc(OC)c1OC [Compound 35, 3′,4′,5′-O-trimethylrobinetin] |  |  |  |
| − | − | O=C1c2ccc(O)cc2OC(c2cc(O)c(O)c(O)c2)C1O (stereo in doubt) [Compound 30, dihydrorobinetin] |  |  | TOPOIIα enzymatic inhibition (in words) [1]: no inhibitory activity; TOPOIIβ enzymatic inhibition (in words) [2]: no inhibitory activity |
| − | − | O=c1cc(-c2cc(O)c(O)c(O)c2)oc2ccccc12 [Compound 8, 3′,4′,5′-trihydroxyflavone] |  |  | Toxicity [3]: − |
| − | − | O=c1cc(-c2cc(O)c(O)c(O)c2)oc2cc(O)ccc12 [Compound 6, 7,3′,4′,5′-tetrahydroxyflavone] |  |  | Toxicity [3]: − |
